Source: ChEMBL document CHEMBL2429743, “Synthesis and antitumor properties of novel curcumin analogs” (Med Chem Res, 2013)
Active and inactive are the calls of the source. The calls are words filed in the database; no cut-off is given here.

What was measured:
[1] = test system: Bcap37; experiment: Cytotoxicity against human Bcap37 cells after 72 hrs by MTT assay; conditions: Bcap37, 72 h
[2] = test system: MGC-803; experiment: cells; conditions: Homo sapiens, MGC-803, 72 h
Description: Cytotoxicity against human MGC803 cells after 72 hrs by MTT assay

[3] = test system: PC-3; experiment: cells; conditions: Homo sapiens, PC-3, 72 h
Description: Cytotoxicity against human PC3 cells after 72 hrs by MTT assay

[4] = Selectivity index, ratio of IC50 for mouse NIH3T3 cells to IC50 for human MGC803 cells; assay type: functional
[5] = Selectivity index, ratio of IC50 for mouse NIH3T3 cells to IC50 for human Bcap37 cells; assay type: functional
[6] = Selectivity index, ratio of IC50 for mouse NIH3T3 cells to IC50 for human PC3 cells; assay type: functional
[7] = test system: MGC-803; experiment: Induction of apoptosis in human MGC803 cells assessed as early and late apoptosis ratio at 1 to 10 uM by annxinV-FITC/propidium iodide staining-based flow cytometry; assay type: functional, cell-based; conditions: TDE = time-dependent effect
[8] = test system: MGC-803; experiment: Induction of apoptosis in human MGC803 cells assessed as early and late apoptosis ratio at 10 uM after 24 hrs by annxinV-FITC/propidium iodide staining-based flow cytometry; assay type: functional
[9] = test system: MGC-803; experiment: Induction of apoptosis in human MGC803 cells assessed as early and late apoptosis ratio at 5 uM after 24 hrs by annxinV-FITC/propidium iodide staining-based flow cytometry; assay type: functional
[10] = test system: MGC-803; experiment: Induction of apoptosis in human MGC803 cells assessed as early and late apoptosis ratio at 1 uM after 24 hrs by annxinV-FITC/propidium iodide staining-based flow cytometry; assay type: functional
[11] = test system: MGC-803; experiment: Induction of apoptosis in human MGC803 cells assessed as early and late apoptosis ratio at 10 uM after 12 hrs by annxinV-FITC/propidium iodide staining-based flow cytometry; assay type: functional
[12] = test system: MGC-803; experiment: Induction of apoptosis in human MGC803 cells assessed as early and late apoptosis ratio at 5 uM after 12 hrs by annxinV-FITC/propidium iodide staining-based flow cytometry; assay type: functional
[13] = test system: MGC-803; experiment: Induction of apoptosis in human MGC803 cells assessed as early and late apoptosis ratio at 1 uM after 12 hrs by annxinV-FITC/propidium iodide staining-based flow cytometry; assay type: functional
[14] = test system: MGC-803; experiment: Induction of apoptosis in human MGC803 cells assessed as early and late apoptosis ratio at 10 uM after 6 hrs by annxinV-FITC/propidium iodide staining-based flow cytometry; assay type: functional
[15] = test system: MGC-803; experiment: Induction of apoptosis in human MGC803 cells assessed as early and late apoptosis ratio at 5 uM after 6 hrs by annxinV-FITC/propidium iodide staining-based flow cytometry; assay type: functional
[16] = test system: MGC-803; experiment: Induction of apoptosis in human MGC803 cells assessed as early and late apoptosis ratio at 1 uM after 6 hrs by annxinV-FITC/propidium iodide staining-based flow cytometry; assay type: functional
[17] = test system: MGC-803; experiment: Induction of apoptosis in human MGC803 cells assessed as DNA fragmentation at 5 uM after 12 hrs by EB staining-based agarose gel electrophoresis relative to control; assay type: functional, cell-based
[18] = test system: MGC-803; experiment: Induction of apoptosis in human MGC803 cells assessed as chromatin condensation at 5 uM after 12 hrs by Hoechst 33258 staining-based fluorescence microscopic analysis; assay type: functional, cell-based
[19] = test system: MGC-803; experiment: Induction of apoptosis in human MGC803 cells assessed as pyknotic nuclei at 5 uM after 12 hrs by Hoechst 33258 staining-based fluorescence microscopic analysis; assay type: functional, cell-based
[20] = test system: Bcap37; experiment: Induction of apoptosis in human Bcap37 cells assessed as chromatin condensation at 5 uM after 12 hrs by Hoechst 33258 staining-based fluorescence microscopic analysis; assay type: functional, cell-based
[21] = test system: Bcap37; experiment: Induction of apoptosis in human Bcap37 cells assessed as pyknotic nuclei at 5 uM after 12 hrs by Hoechst 33258 staining-based fluorescence microscopic analysis; assay type: functional, cell-based
[22] = test system: PC-3; experiment: Induction of apoptosis in human PC3 cells assessed as chromatin condensation at 5 uM after 12 hrs by Hoechst 33258 staining-based fluorescence microscopic analysis; assay type: functional, cell-based
[23] = test system: PC-3; experiment: Induction of apoptosis in human PC3 cells assessed as pyknotic nuclei at 5 uM after 12 hrs by Hoechst 33258 staining-based fluorescence microscopic analysis; assay type: functional, cell-based
[24] = test system: MGC-803; experiment: Induction of apoptosis in human MGC803 cells assessed as early and late apoptic cells at 5 uM after 12 hrs by AO/EB staining-based fluorescence microscopic analysis; assay type: functional, cell-based
[25] = test system: MGC-803; experiment: Induction of apoptosis in human MGC803 cells assessed as necrotic cells at 5 uM after 12 hrs by AO/EB staining-based fluorescence microscopic analysis; assay type: functional, cell-based
[26] = test system: Bcap37; experiment: Induction of apoptosis in human Bcap37 cells assessed as necrotic cells at 5 uM after 12 hrs by AO/EB staining-based fluorescence microscopic analysis; assay type: functional, cell-based
[27] = test system: Bcap37; experiment: Induction of apoptosis in human Bcap37 cells assessed as early and late apoptic cells at 5 uM after 12 hrs by AO/EB staining-based fluorescence microscopic analysis; assay type: functional, cell-based
[28] = test system: PC-3; experiment: Induction of apoptosis in human PC3 cells assessed as necrotic cells at 5 uM after 12 hrs by AO/EB staining-based fluorescence microscopic analysis; assay type: functional, cell-based
[29] = test system: PC-3; experiment: Induction of apoptosis in human PC3 cells assessed as early and late apoptic cells at 5 uM after 12 hrs by AO/EB staining-based fluorescence microscopic analysis; assay type: functional, cell-based
[30] = test system: MGC-803; experiment: Induction of apoptosis in human MGC803 cells assessed as DNA fragmentation at 10 uM after 12 hrs by EB staining-based agarose gel electrophoresis relative to control; assay type: functional, cell-based
[31] = test system: MGC-803; experiment: Induction of apoptosis in human MGC803 cells assessed as chromatin condensation at 10 uM after 12 hrs by Hoechst 33258 staining-based fluorescence microscopic analysis; assay type: functional, cell-based
[32] = test system: MGC-803; experiment: Induction of apoptosis in human MGC803 cells assessed as smaller nuclei at 10 uM after 12 hrs by Hoechst 33258 staining-based fluorescence microscopic analysis; assay type: functional, cell-based
[33] = test system: Bcap37; experiment: Induction of apoptosis in human Bcap37 cells assessed as chromatin condensation at 10 uM after 12 hrs by Hoechst 33258 staining-based fluorescence microscopic analysis; assay type: functional, cell-based
[34] = test system: Bcap37; experiment: Induction of apoptosis in human Bcap37 cells assessed as smaller nuclei at 10 uM after 12 hrs by Hoechst 33258 staining-based fluorescence microscopic analysis; assay type: functional, cell-based
[35] = test system: PC-3; experiment: Induction of apoptosis in human PC3 cells assessed as chromatin condensation at 10 uM after 12 hrs by Hoechst 33258 staining-based fluorescence microscopic analysis; assay type: functional, cell-based
[36] = test system: PC-3; experiment: Induction of apoptosis in human PC3 cells assessed as smaller nuclei at 10 uM after 12 hrs by Hoechst 33258 staining-based fluorescence microscopic analysis; assay type: functional, cell-based

## Cc1cccc2c(Oc3ccc(/C=C/C(=O)/C=C/c4ccc(Cl)cc4Cl)cc3)ncnc12
[1]
  IC50: 32.8 µM
[2]
  IC50: 5.13 µM
[3]
  IC50: 15.2 µM

## O=C(/C=C/c1ccc(Cl)cc1)/C=C/c1ccc(Oc2ncnc3ccccc23)cc1
[1]
  IC50: 11.3 µM
[2]
  IC50: 4.84 µM
[3]
  IC50: 7.35 µM

## Cc1nn(C)c(Cl)c1/C=C/C(=O)/C=C/c1ccc(Oc2ncnc3c(C)cccc23)cc1
[1]
  IC50: 21.3 µM
[2]
  IC50: 11.6 µM
[3]
  IC50: 16.4 µM

## Cc1nn(C)c(Cl)c1/C=C/C(=O)/C=C/c1ccc(Oc2ncnc3ccccc23)cc1
[1]
  IC50: 18.9 µM
[2]
  IC50: 9.31 µM
[3]
  IC50: 11.5 µM

## COc1ccc(OC)c(/C=C/C(=O)/C=C/c2ccc(Oc3ncnc4ccccc34)cc2)c1
[4]
  Ratio IC50: 6.57
[5]
  Ratio IC50: <2
[6]
  Ratio IC50: 4.46
[1]
  IC50: 7.81 µM
[2]
  IC50: 2.01 µM
[3]
  IC50: 2.96 µM

## Cc1cccc2c(Oc3ccc(/C=C/C(=O)/C=C/c4ccc(F)cc4)cc3)ncnc12
[1]
  IC50: 9.25 µM
[2]
  IC50: 4.36 µM
[3]
  IC50: 7.36 µM

## Cc1cccc2c(Oc3ccc(/C=C/C(=O)/C=C/c4ccc(Cl)cc4)cc3)ncnc12
[1]
  IC50: 12.3 µM
[2]
  IC50: 8.1 µM
[3]
  IC50: 8.79 µM

## O=C(/C=C/c1ccc(F)cc1)/C=C/c1ccc(Oc2ncnc3ccccc23)cc1
[1]
  IC50: 8.53 µM
[2]
  IC50: 3.84 µM
[3]
  IC50: 5.62 µM

## O=C(/C=C/c1ccc(Oc2ncnc3ccccc23)cc1)/C=C/c1cc([N+](=O)[O-])ccc1Cl
[7]
  Activity: tde
[8]
  Activity: 27.1%
[9]
  Activity: 8.9%
[10]
  Activity: 5.3%
[11]
  Activity: 10.5%
[12]
  Activity: 6.2%
[13]
  Activity: 2.8%
[14]
  Activity: 6.4%
[15]
  Activity: 4.1%
[16]
  Activity: 2.4%
[17]
  Activity: Active
[18]
  Activity: Active
[19]
  Activity: Active
[20]
  Activity: Active
[21]
  Activity: Active
[22]
  Activity: Active
[23]
  Activity: Active
[24]
  Activity: Active
[25]
  Activity: Active
[26]
  Activity: Active
[27]
  Activity: Active
[28]
  Activity: Active
[4]
  Ratio IC50: >8
[29]
  Activity: Active
[5]
  Ratio IC50: 5.72
[6]
  Ratio IC50: >8
[1]
  IC50: 3.9 µM
[2]
  IC50: 0.86 µM
[3]
  IC50: 1.34 µM

## CC[C@@]1(O)C(=O)OCc2c1cc1n(c2=O)Cc2cc3cc(O)ccc3nc2-1 [HYDROXYCAMPTOTHECIN]
[8]
  Activity: 24.5%
[9]
  Activity: 7.6%
[10]
  Activity: 4.7%
[11]
  Activity: 8.6%
[12]
  Activity: 5.8%
[13]
  Activity: 2%
[14]
  Activity: 3%
[15]
  Activity: 1.8%
[16]
  Activity: 1.2%
[30]
  Activity: Active
[31]
  Activity: Active
[32]
  Activity: Active
[33]
  Activity: Active
[34]
  Activity: Active
[35]
  Activity: Active
[36]
  Activity: Active

## O=C(/C=C/c1ccc(Oc2ncnc3ccccc23)cc1)/C=C/c1ccc(Cl)cc1Cl
[1]
  IC50: 10.8 µM
[2]
  IC50: 2.77 µM
[3]
  IC50: 4.57 µM

## CC(=O)/C=C/c1ccc(Oc2ncnc3c(C)cccc23)cc1
[1]
  IC50: 30.3 µM
[2]
  IC50: 19.9 µM
[3]
  IC50: 25.8 µM

## COc1ccccc1/C=C/C(=O)/C=C/c1ccc(Oc2ncnc3ccccc23)cc1
[4]
  Ratio IC50: 6.13
[5]
  Ratio IC50: <2
[6]
  Ratio IC50: 3.4
[1]
  IC50: 7.82 µM
[2]
  IC50: 2.03 µM
[3]
  IC50: 3.66 µM

## Cc1cccc2c(Oc3ccc(/C=C/C(=O)/C=C/c4cc([N+](=O)[O-])ccc4Cl)cc3)ncnc12
[1]
  IC50: 7.89 µM
[2]
  IC50: 1.86 µM
[3]
  IC50: 2.79 µM

## COc1ccc(OC)c(/C=C/C(=O)/C=C/c2ccc(Oc3ncnc4c(C)cccc34)cc2)c1
[1]
  IC50: 8.17 µM
[2]
  IC50: 2.32 µM
[3]
  IC50: 4.71 µM

## COc1cccc2c1C(=O)c1c(O)c3c(c(O)c1C2=O)C[C@@](O)(C(=O)CO)C[C@@H]3O[C@H]1C[C@H](N)[C@H](O)[C@H](C)O1 [DOXORUBICIN]
[4]
  Ratio IC50: <2
[5]
  Ratio IC50: <2
[6]
  Ratio IC50: <2
[1]
  IC50: 1.9 µM
[2]
  IC50: 0.74 µM
[3]
  IC50: 1.01 µM

## CC(=O)/C=C/c1ccc(Oc2ncnc3ccccc23)cc1
[1]
  IC50: 28.9 µM
[2]
  IC50: 18.4 µM
[3]
  IC50: 21.3 µM

## COc1ccccc1/C=C/C(=O)/C=C/c1ccc(Oc2ncnc3c(C)cccc23)cc1
[1]
  IC50: 9.26 µM
[2]
  IC50: 3.76 µM
[3]
  IC50: 5.17 µM
